From PubChem BioAssay (NCI)
“And” between values parts separate entries of the source, which are not always exact repeats. Identical values can stand only once.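 All cell lines were grown in 96-well plates and treated with compound for 48 hours. GI50 is the concentration that inhibits growth by half. TGI: total growth inhibition.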

Legend:
Test in all cases: NCI tumour cell line growth inhibition, 48 h
CAKI-1 renal = tested on: CAKI-1 renal
HCT-116 colon = tested on: HCT-116 colon
HS 578T breast = tested on: HS 578T breast
NCI-H23 lung = tested on: NCI-H23 lung
NCI-H522 lung = tested on: NCI-H522 lung
OVCAR-4 ovarian = tested on: OVCAR-4 ovarian
SK-MEL-28 melanoma = tested on: SK-MEL-28 melanoma
SK-OV-3 ovarian = tested on: SK-OV-3 ovarian
SN12C renal = tested on: SN12C renal
U251 CNS = tested on: U251 CNS

Row | Compound | GI50 (CAKI-1 renal) | TGI (CAKI-1 renal) | GI50 (HCT-116 colon) | TGI (HCT-116 colon) | GI50 (HS 578T breast) | TGI (HS 578T breast) | GI50 (NCI-H23 lung) | TGI (NCI-H23 lung) | GI50 (NCI-H522 lung) | TGI (NCI-H522 lung) | GI50 (OVCAR-4 ovarian) | TGI (OVCAR-4 ovarian) | GI50 (SK-MEL-28 melanoma) | TGI (SK-MEL-28 melanoma) | GI50 (SK-OV-3 ovarian) | TGI (SK-OV-3 ovarian) | GI50 (SN12C renal) | TGI (SN12C renal) | GI50 (U251 CNS) | TGI (U251 CNS)
1 | CC(C)(C)C(=O)c1c(C(F)(F)F)n([O-])c2cc(Cl)c(Cl)cc2[n+]1=O | 0.248 µM | 0.639 µM | 1.58 µM | 2.93 µM | 0.16 µM | 0.554 µM | 0.849 µM | 2.3 µM | 0.538 µM | 1 µM | 1.14 µM | 2.37 µM | 0.618 µM | 1.6 µM | 0.815 µM | 2.07 µM | 0.778 µM | 2.09 µM | 0.492 µM | 0.951 µM
2 | CSc1ccc(NC(=O)Nc2cc(C)ccn2)cc1 | – | > 100 µM | – | > 100 µM | – | > 100 µM | – | > 100 µM | – | > 100 µM | – | > 100 µM | – | > 100 µM | – | > 100 µM | – | > 100 µM | – | > 100 µM
3 | O=C(N/N=C/c1cc(Cl)ccc1O)c1ccccc1Nc1ccnc(C(F)(F)F)c1 | 0.405 µM | 3.87 µM | 0.27 µM | 13.1 µM | 1.15 µM | 10.5 µM | 1.31 µM | 16.3 µM | 0.689 µM | 6.53 µM | 0.299 µM | 35 µM | 0.389 µM | 15.1 µM | 0.55 µM | 19.1 µM | 1.23 µM | 10.2 µM | 0.335 µM | 9.41 µM
4 | Oc1ccc(Cl)cc1Sc1cc(Cl)ccc1O | 6.82 µM | 34.8 µM and 29.6 µM | 2.79 µM | 19.7 µM and 7.21 µM | – | 29.7 µM | 2.23 µM | 24.2 µM and 7.33 µM | 2.41 µM | 13.6 µM and 9.17 µM | 3.4 µM | 22.9 µM and 13.5 µM | 4.67 µM | 26.3 µM and 15.3 µM | 4.86 µM | 43.5 µM and 19.1 µM | 3.16 µM | 27.4 µM and 10.4 µM | 3.31 µM | 22.1 µM and 12.2 µM
5 | C[C@@]1(C(=O)O)CCC[C@]2(C)C1CC[C@]13C[C@@](O)(CO)[C@](O)(CC[C@]12O)C3 (some centres undefined) | > 100 µM | > 100 µM | > 100 µM | > 100 µM | > 100 µM | > 100 µM | > 100 µM | > 100 µM | > 100 µM | > 100 µM | > 100 µM | > 100 µM | > 100 µM | > 100 µM | > 100 µM | > 100 µM | > 100 µM | > 100 µM | > 100 µM | > 100 µM
6 | CCCCSc1nc(N)c2cn[nH]c2n1 | 18.2 µM | 44.4 µM | 14.1 µM | 34.8 µM | 22 µM | 63.2 µM | 13.8 µM | 30.9 µM | 20.7 µM | 49.6 µM | 23.6 µM | 70.4 µM | 20.3 µM | 40.3 µM | 37 µM | > 92.3 µM | 12.8 µM | 28.5 µM | 28.1 µM | > 64.1 µM
